According to PubChem BioAssay (NCI):
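Tested at 5 concentrations; 48 h exposure; 96-well plates; endpoints linearly interpolated, else capped at highest concentration. GI50 marks 50% less growth. The concentration for full growth arrest is given as TGI.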

Experiments:
Test in all cases: NCI anticancer screen, dose series, 48 h
[1] = tested on: NCI-H522 lung
[2] = tested on: M14 melanoma
[3] = tested on: SR leukemia
[4] = tested on: MDA-MB-231 breast
[5] = tested on: SF-295 CNS
[6] = tested on: PC-3 prostate
[7] = tested on: COLO 205 colon
[8] = tested on: NCI/ADR-RES ovarian
[9] = tested on: LOX IMVI melanoma
[10] = tested on: KM20L2 colon
[11] = tested on: XF 498 CNS
[12] = tested on: M19-MEL melanoma
[13] = tested on: OVCAR-4 ovarian
[14] = tested on: DMS 273 small cell lung
[15] = tested on: DLD-1 colon

Row | Structure (SMILES) | TGI [1] | TGI [2] | TGI [3] | TGI [4] | TGI [5] | TGI [6] | TGI [7] | TGI [8] | TGI [9] | GI50 [2] | GI50 [4] | GI50 [6] | GI50 [8] | TGI [10] | TGI [11] | TGI [12] | TGI [13] | TGI [14] | TGI [15]
1 | Cc1ccc(Cl)cc1N=NC(=O)NNc1cc(Cl)ccc1C | 27.6 µM | 34.7 µM | > 100 µM | 40.3 µM | > 100 µM | 46.3 µM | 41 µM | 63.9 µM | – | – | – | – | – | – | – | – | – | – | –
2 | CCOC(=O)NC(Nc1cc(Cl)ccc1OC)(C(F)(F)F)C(F)(F)F | > 100 µM | > 100 µM | > 100 µM | > 100 µM | – | – | – | – | > 100 µM | – | – | – | – | – | – | – | – | – | –
3 | COc1cccc2c1C(=O)c1c(O)c3c(c(O)c1C2=O)C[C@@](O)(C(=O)COC(=O)c1ccccc1)C[C@@H]3OC1CC(N)C(O)C(C)O1 (stereo not given in full) | – | 1.35 µM | 0.225 µM | 1.79 µM | – | 0.744 µM | – | 4.1 µM | – | 0.21 µM | 0.376 µM | 0.194 µM | 1.44 µM | – | – | – | – | – | –
4 | O=C(NN1C(=O)C(Cl)C1c1cccc([N+](=O)[O-])c1)c1ccccc1O (stereo not given) | > 100 µM | > 100 µM | > 100 µM | – | > 100 µM | – | > 100 µM | – | – | – | – | – | – | > 100 µM | > 100 µM | > 100 µM | > 100 µM | – | –
5 | CCOC(=O)/C=C/c1c(C)[nH]c(=O)[nH]c1=O | > 250 µM | – | – | – | > 250 µM | – | > 250 µM | > 250 µM | > 250 µM | – | – | – | – | > 250 µM | > 250 µM | > 250 µM | > 158 µM | > 250 µM | > 250 µM
6 | C/C(=N\NC(=S)N1CCC(N2CCCCC2)CC1)c1ccccn1 | 0.646 µM | 3.8 µM | 9.74 µM | 3.57 µM | 7.12 µM | 10.3 µM | 9.95 µM | 5.67 µM | 8.28 µM | – | – | – | – | 14.2 µM | 19.6 µM | 12.6 µM | 16.7 µM | 9.43 µM | > 100 µM
7 | O=C1C(CO)=C[C@H](O)[C@H]2O[C@@H]12 | 164 µM | – | – | – | 177 µM | – | 209 µM | 449 µM | > 393 µM | – | – | – | – | > 625 µM | 359 µM | 292 µM | 317 µM | 485 µM | 227 µM
8 | c1ccc2c(c1)NCc1cc3ccccc3nc1O2 | > 100 µM | – | – | – | > 100 µM | – | > 100 µM | > 100 µM | > 100 µM | – | – | – | – | – | > 100 µM | > 100 µM | > 100 µM | > 100 µM | > 100 µM
9 | c1ccc2c(c1)c1ccccc1n2Cn1c2ccccc2c2ccccc21 | > 100 µM | > 100 µM | > 100 µM | > 100 µM | > 100 µM | > 100 µM | – | > 100 µM | > 100 µM | – | – | – | – | – | – | – | > 100 µM | – | –
10 | COc1cc(-c2ccc(N=Nc3ccc4c(S(=O)(=O)O)cc(S(=O)(=O)O)c(N)c4c3O)c(OC)c2)ccc1N=Nc1ccc2c(S(=O)(=O)O)cc(S(=O)(=O)O)c(N)c2c1O | > 100 µM | – | – | – | > 100 µM | – | > 100 µM | > 100 µM | > 100 µM | – | – | – | – | > 100 µM | > 100 µM | > 100 µM | > 100 µM | > 100 µM | > 100 µM
11 | O=C1CCC[C@H]2O[C@@H](COC(=O)c3ccccc3)C[C@H]2O1 | – | > 100 µM | > 100 µM | > 100 µM | > 100 µM | > 100 µM | > 100 µM | > 100 µM | – | – | – | – | – | – | – | – | > 100 µM | – | –
12 | c1cc2c3c(c1)c1cc4c(cc1c[n+]3CC2)OCO4 | 10.1 µM | – | – | – | 13.1 µM | – | 19.9 µM | > 225 µM | > 96.1 µM | – | – | – | – | 49.7 µM | 10.9 µM | 5.21 µM | 47.7 µM | 30.5 µM | 121 µM
13 | O=C(N/N=C\c1cccc2ccccc12)Nc1ccccc1 | – | > 100 µM | > 100 µM | – | > 100 µM | > 100 µM | > 100 µM | > 100 µM | > 100 µM | – | – | – | – | – | – | – | > 100 µM | – | –
